Assay results taken from patent US20040102320A1, “NATURAL HERBICIDE FOR WEED REMOVAL” (priority 2002, published 2004).

Tested on: grass, including crabgrass and other weeds
Details: 100% of sodium bicarbonate

SMILES: O=C([O-])O.[Na+] [sodium bicarbonate]
- killing of grass: would kill grass, including crabgrass and other weeds
